Measurements published in US20230372227A1, “PRESERVATIVE COMPRISING POLYLYSINE AND CAPRYLYL GLYCERYL ETHER FOR EXTERNAL-USE SKIN FORMULATIONS AND COSMETICS COMPOSITION COMPRISING SAME” (ACTIVON CO., LTD., priority 2020, published 2023).

Key:
Assay in all cases: Minimum inhibitory concentration (MIC) of preservatives
Format in all cases: cell-based
[1] = tested on: Staphylococcus aureus (ATCC 6538); details: Experimental Example 1; growth inhibited by about 95% or more; about 10^6 CFU/ml; about 32° C., 24 to 48 hours
Description: (§1) In this experimental example, in order to evaluate the antimicrobial effect of the preservatives for skin external preparations, prepared in Examples 1 to 5, the minimum inhibitory concentrations (MICs) of the preservative of each Example against bacteria or fungi, including Escherichia coli (ATCC 8739), Pseudomonas aeruginosa (ATCC 9027), Staphylococcus aureus (ATCC 6538), Candida albicans (ATCC 10231), and Aspergillus brasiliensis (ATCC 16404), were measured.
(§2) Specifically, each of the preservatives for skin external preparations, prepared in Examples 1 to 5, was diluted to about 13% to about 25%, and each of the dilutions was further serially diluted 1:1 (10 times). Thereby, samples of various concentrations (about 0.05% to about 10%) for each of the preservatives for skin external preparations, prepared in Examples 1 to 5, were prepared. Each of the obtained samples was added to tryptic soy broth (TSB) medium or potato dextrose agar (PDA) medium. In about 10 ml of the medium to which each sample was added, each type of bacteria or fungi described above was seeded so that the final concentration of the bacteria or fungi was about 10^6 CFU/ml, and then the bacteria were cultured at about 32° C. for about 24 hours to 48 hours, and fungi were cultured at about 25° C. for about 24 hours to 48 hours. Thereafter, the minimum inhibitory concentration (MIC) of each sample capable of inhibiting the growth of the bacteria or fungi by about 95% or more was determined by observing the state of the bacterial or fungal culture medium. The growth of normal bacteria in a medium to which no sample was added was measured and used as a positive control, and the MIC for the growth of bacteria or fungi in a medium to which polyepsilon-lysine, caprylyl glyceryl ether, or propylene glycol was added alone was measured and used as a control.
(§3) In this experimental example, in order to evaluate the antimicrobial effect of a preservative for a skin external application comprising polylysine, caprylyl glyceryl ether and a glycol compound at a weight ratio of 0.1 to 5:10 to 30:65 to 75, the minimum inhibitory concentrations (MICs) of the preservative of each Example against bacteria or fungi, including Escherichia coli (ATCC 8739), Pseudomonas aeruginosa (ATCC 9027), Staphylococcus aureus (ATCC 6538), Candida albicans (ATCC 10231), and Aspergillus brasiliensis (ATCC 16404), were measured. Polyepsilon-lysine was used as the polylysine, and propylene glycol, butylene glycol, or pentylene glycol was used as the glycol compound.
(§4) Each of the preservatives for skin external preparations was diluted to about 10%, and each of the dilutions was further serially diluted 1:1 ([…]). Thereby, samples of various concentrations (about 0.01% to about 10%) for each of the preservatives for skin external preparations were prepared. Each of the obtained samples was added to tryptic soy broth (TSB) medium or potato dextrose agar (PDA) medium. In about 10 ml of the medium to which each sample was added, each type of bacteria or fungi described above was seeded so that the final concentration of the bacteria or fungi was about 10^6 CFU/ml, and then the bacteria were cultured at about 32° C. for about 24 hours to 48 hours, and fungi were cultured at about 25° C. for about 24 hours to 48 hours. […] The growth of normal bacteria in a medium to which no sample was added was measured and used as a positive control.

[2] = tested on: Candida albicans (ATCC 10231); details: Experimental Example 1; growth inhibited by about 95% or more; about 10^6 CFU/ml; about 25° C., 24 to 48 hours
Description: as §1, §2, §3, §4

[3] = tested on: Aspergillus brasiliensis (ATCC 16404); details: Experimental Example 1; growth inhibited by about 95% or more; about 10^6 CFU/ml; about 25° C., 24 to 48 hours
Description: as §1, §2, §3, §4

[4] = tested on: Escherichia coli (ATCC 8739); details: Experimental Example 1; growth inhibited by about 95% or more; about 10^6 CFU/ml; about 32° C., 24 to 48 hours
Description: as §1, §2, §3, §4

[5] = tested on: Pseudomonas aeruginosa (ATCC 9027); details: Experimental Example 1; growth inhibited by about 95% or more; about 10^6 CFU/ml; about 32° C., 24 to 48 hours
Description: as §1, §2, §3, §4

CC(O)CO (centres unmarked) [Propylene glycol]
>10 %, w/w: MIC (%, w/w) of sample S. aureus [1] | MIC (%, w/w) of sample C. albicans [2] | MIC (%, w/w) of sample A. brasiliensis [3] | MIC (%, w/w) of sample E. coli [4] | MIC (%, w/w) of sample P. aeruginosa [5]
